# From patent US7795290B2 (Genentech, Inc., priority 2004, dated 2010)
# Molecular target: T1, AKT1 (Homo sapiens, UniProt P31749)
# T1 construct: purchased Upstate 14-276
# Assay: HTS ATP-utilizing enzyme assay, off-chip mobility-shift (Caliper HTS 250)
# Assay type: biochemical
# Conditions: kinase named = inhibitory activity/selectivity; test compound 10 μM; active = greater than three-sigma from mean
# Outline: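 AKT1 activity was measured by off-chip mobility shift (Caliper HTS 250) as the ratio of peptide substrate to phosphorylated product. Test compound was at 10 μM, with 2.5 h incubation at 20–22° C. EDTA wells served as 100% control and DMSO wells as 0%. Hits were called at three-sigma limits.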
# T1 sequence (P31749 whole entry): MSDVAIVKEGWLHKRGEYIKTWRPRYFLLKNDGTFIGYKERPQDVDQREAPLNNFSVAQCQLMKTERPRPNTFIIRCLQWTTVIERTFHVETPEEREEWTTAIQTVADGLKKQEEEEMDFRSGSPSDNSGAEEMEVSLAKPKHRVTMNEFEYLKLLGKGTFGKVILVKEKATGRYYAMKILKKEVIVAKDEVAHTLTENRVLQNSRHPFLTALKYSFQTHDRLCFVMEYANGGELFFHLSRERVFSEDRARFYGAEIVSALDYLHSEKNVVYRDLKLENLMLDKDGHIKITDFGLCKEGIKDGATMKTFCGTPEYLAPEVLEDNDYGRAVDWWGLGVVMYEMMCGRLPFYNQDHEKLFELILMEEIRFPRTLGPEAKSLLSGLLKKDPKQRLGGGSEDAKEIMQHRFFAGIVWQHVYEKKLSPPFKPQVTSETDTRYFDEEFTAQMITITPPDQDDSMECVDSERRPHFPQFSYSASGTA
row,Activity,SMILES
1,AKT1,"O=C(c1cccs1)N(CCCN1CCOCC1)c1nc(-c2ccc(Cl)c(Cl)c2)cs1 [N-(4-(3,4-dichlorophenyl)thiazol-2-yl)-N-(3-morpholinopropyl)thiophene-2-carboxamide]"
2,AKT1,"O=C(c1cccs1)N(CCCN1CCOCC1)c1nc(-c2ccc(F)c(F)c2)cs1 [N-(4-(3,4-difluorophenyl)thiazol-2-yl)-N-(3-morpholinopropyl)thiophene-2-carboxamide]"
3,AKT1,"COc1ccc(-c2csc(N(CCN3CCOCC3)C(=O)c3cccs3)n2)cc1OC [N-(4-(3,4-dimethoxyphenyl)thiazol-2-yl)-N-(2-morpholinoethyl)thiophene-2-carboxamide]"
4,AKT1,"COc1ccc(-c2csc(N(CCCN3CCCC3=O)C(=O)c3cccs3)n2)cc1OC [N-(4-(3,4-dimethoxyphenyl)thiazol-2-yl)-N-(3-(2-oxopyrrolidin-1-yl)propyl)thiophene-2-carboxamide]"
5,AKT1,"COc1ccc(-c2csc(N(CCCN3CCN(C)CC3)C(=O)c3cccs3)n2)cc1OC [N-(4-(3,4-dimethoxyphenyl)thiazol-2-yl)-N-(3-(4-methylpiperazin-1-yl)propyl)thiophene-2-carboxamide]"
6,AKT1,"COc1ccc(-c2csc(N(CCCN3CCCCC3)C(=O)c3cccs3)n2)cc1OC [N-(4-(3,4-dimethoxyphenyl)thiazol-2-yl)-N-(3-(piperidin-1-yl)propyl)thiophene-2-carboxamide]"
7,AKT1,"COc1ccc(-c2csc(N(CCCN3CCOCC3)C(=O)c3ccccc3)n2)cc1OC [N-(4-(3,4-dimethoxyphenyl)thiazol-2-yl)-N-(3-morpholinopropyl)benzamide]"
8,AKT1,"COc1ccc(-c2csc(N(CCCN3CCOCC3)C(=O)C3CCC3)n2)cc1OC [N-(4-(3,4-dimethoxyphenyl)thiazol-2-yl)-N-(3-morpholinopropyl)cyclobutanecarboxamide]"
9,AKT1,"COc1ccc(-c2csc(N(CCCN3CCOCC3)C(=O)C3CCCC3)n2)cc1OC [N-(4-(3,4-dimethoxyphenyl)thiazol-2-yl)-N-(3-morpholinopropyl)cyclopentanecarboxamide]"
10,AKT1,"COc1ccc(-c2csc(N(CCCN3CCOCC3)C(=O)c3ccco3)n2)cc1OC [N-(4-(3,4-dimethoxyphenyl)thiazol-2-yl)-N-(3-morpholinopropyl)furan-2-carboxamide]"
11,AKT1,"COc1ccc(-c2csc(N(CCCN3CCOCC3)C(=O)c3ccccn3)n2)cc1OC [N-(4-(3,4-dimethoxyphenyl)thiazol-2-yl)-N-(3-morpholinopropyl)picolinamide]"
12,AKT1,"COc1ccc(-c2csc(N(CCCN3CCOCC3)C(=O)c3cccs3)n2)cc1OC [N-(4-(3,4-dimethoxyphenyl)thiazol-2-yl)-N-(3-morpholinopropyl)thiophene-2-carboxamide]"
13,AKT1,"COc1ccc(-c2csc(N(CCCc3ccccc3)C(=O)c3cccs3)n2)cc1OC [N-(4-(3,4-dimethoxyphenyl)thiazol-2-yl)-N-(3-phenylpropyl)thiophene-2-carboxamide]"
14,AKT1,"COc1ccc(-c2csc(N(CCCCCN3CCOCC3)C(=O)c3cccs3)n2)cc1OC [N-(4-(3,4-dimethoxyphenyl)thiazol-2-yl)-N-(5-morpholinopentyl)thiophene-2-carboxamide]"
15,AKT1,CN(C)CCOc1cccc(-c2csc(N(CCCN3CCOCC3)C(=O)c3cccs3)n2)c1 [N-(4-(3-(2-(dimethylamino)ethoxy)phenyl)thiazol-2-yl)-N-(3-morpholinopropyl)thiophene-2-carboxamide]
16,AKT1,CN(C)CCCOc1cccc(-c2csc(N(CCCN3CCOCC3)C(=O)c3cccs3)n2)c1 [N-(4-(3-(3-(dimethylamino)propoxy)phenyl)thiazol-2-yl)-N-(3-morpholinopropyl)thiophene-2-carboxamide]
17,AKT1,O=C(c1cccs1)N(CCCN1CCOCC1)c1nc(-c2cc(-c3ccc(Cl)cc3)no2)cs1 [N-(4-(3-(4-chlorophenyl)isoxazol-5-yl)thiazol-2-yl)-N-(3-morpholinopropyl)thiophene-2-carboxamide]
18,AKT1,CC(=O)NC1CCN(C(=O)CCCN(C(=O)c2cccs2)c2nc(-c3cc4ccccc4o3)cs2)C1 (stereo not shown) [N-(4-(3-acetamidopyrrolidin-1-yl)-4-oxobutyl)-N-(4-(benzofuran-2-yl)thiazol-2-yl)thiophene-2-carboxamide]
19,AKT1,O=C(c1cccs1)N(CCCN1CCOCC1)c1nc(-c2cccc(Br)c2)cs1 [N-(4-(3-bromophenyl)thiazol-2-yl)-N-(3-morpholinopropyl)thiophene-2-carboxamide]
20,AKT1,O=C(c1cccs1)N(CCCN1CCOCC1)c1nc(-c2cccc(Cl)c2)cs1 [N-(4-(3-chlorophenyl)thiazol-2-yl)-N-(3-morpholinopropyl)thiophene-2-carboxamide]

row,Activity,SMILES
1,AKT1,O=C(c1cccs1)N(CCCN1CCOCC1)c1nc(-c2cccc(F)c2)cs1 [N-(4-(3-fluorophenyl)thiazol-2-yl)-N-(3-morpholinopropyl)thiophene-2-carboxamide]
2,AKT1,COc1cccc(-c2csc(N(CCCN3CCOCC3)C(=O)c3cccs3)n2)c1 [N-(4-(3-methoxyphenyl)thiazol-2-yl)-N-(3-morpholinopropyl)thiophene-2-carboxamide]
3,AKT1,Cc1c(-c2csc(N(CCCN3CCOCC3)C(=O)c3cccs3)n2)sc2ccccc12 [N-(4-(3-methylbenzo[b]thiophen-2-yl)thiazol-2-yl)-N-(3-morpholinopropyl)thiophene-2-carboxamide]
4,AKT1,CN(C)CCOc1ccc(-c2csc(N(CCCN3CCOCC3)C(=O)c3cccs3)n2)cc1 [N-(4-(4-(2-(dimethylamino)ethoxy)phenyl)thiazol-2-yl)-N-(3-morpholinopropyl)thiophene-2-carboxamide]
5,AKT1,CN(C)CCNC(=O)c1ccc(-c2csc(N(CCCN3CCOCC3)C(=O)c3cccs3)n2)cc1 [N-(4-(4-(2-(dimethylamino)ethylcarbamoyl)phenyl)thiazol-2-yl)-N-(3-morpholinopropyl)thiophene-2-carboxamide]
6,AKT1,O=C(NCCO)c1ccc(-c2csc(N(CCCN3CCOCC3)C(=O)c3cccs3)n2)cc1 [N-(4-(4-(2-hydroxyethylcarbamoyl)phenyl)thiazol-2-yl)-N-(3-morpholinopropyl)thiophene-2-carboxamide]
7,AKT1,O=C(NCCN1CCOCC1)c1ccc(-c2csc(N(CCCN3CCOCC3)C(=O)c3cccs3)n2)cc1 [N-(4-(4-(2-morpholinoethylcarbamoyl)phenyl)thiazol-2-yl)-N-(3-morpholinopropyl)thiophene-2-carboxamide]
8,AKT1,CN(C)CCCOc1ccc(-c2csc(N(CCCN3CCOCC3)C(=O)c3cccs3)n2)cc1 [N-(4-(4-(3-(dimethylamino)propoxy)phenyl)thiazol-2-yl)-N-(3-morpholinopropyl)thiophene-2-carboxamide]
9,AKT1,CN(C)CCCNC(=O)c1ccc(-c2csc(N(CCCN3CCOCC3)C(=O)c3cccs3)n2)cc1 [N-(4-(4-(3-(dimethylamino)propylcarbamoyl)phenyl)thiazol-2-yl)-N-(3-morpholinopropyl)thiophene-2-carboxamide]
10,AKT1,O=C(NCCCO)c1ccc(-c2csc(N(CCCN3CCOCC3)C(=O)c3cccs3)n2)cc1 [N-(4-(4-(3-hydroxypropylcarbamoyl)phenyl)thiazol-2-yl)-N-(3-morpholinopropyl)thiophene-2-carboxamide]
11,AKT1,CN1CCN(C(=O)c2ccc(-c3csc(N(CCCN4CCOCC4)C(=O)c4cccs4)n3)cc2)CC1 [N-(4-(4-(4-methylpiperazine-1-carbonyl)phenyl)thiazol-2-yl)-N-(3-morpholinopropyl)thiophene-2-carboxamide]
12,AKT1,O=C(c1cccs1)N(CCCN1CCOCC1)c1nc(-c2ccc(OC(F)F)cc2)cs1 [N-(4-(4-(difluoromethoxy)phenyl)thiazol-2-yl)-N-(3-morpholinopropyl)thiophene-2-carboxamide]
13,AKT1,CN(C)C(=O)c1ccc(-c2csc(N(CCCN3CCOCC3)C(=O)c3cccs3)n2)cc1 [N-(4-(4-(dimethylcarbamoyl)phenyl)thiazol-2-yl)-N-(3-morpholinopropyl)thiophene-2-carboxamide]
14,AKT1,CNC(=O)c1ccc(-c2csc(N(CCCN3CCOCC3)C(=O)c3cccs3)n2)cc1 [N-(4-(4-(methylcarbamoyl)phenyl)thiazol-2-yl)-N-(3-morpholinopropyl)thiophene-2-carboxamide]
15,AKT1,CS(=O)(=O)c1ccc(-c2csc(N(CCCN3CCOCC3)C(=O)c3cccs3)n2)cc1 [N-(4-(4-(methylsulfonyl)phenyl)thiazol-2-yl)-N-(3-morpholinopropyl)thiophene-2-carboxamide]
16,AKT1,O=C(c1ccc(-c2csc(N(CCCN3CCOCC3)C(=O)c3cccs3)n2)cc1)N1CCOCC1 [N-(4-(4-(morpholine-4-carbonyl)phenyl)thiazol-2-yl)-N-(3-morpholinopropyl)thiophene-2-carboxamide]
17,AKT1,NC(=O)c1ccc(-c2csc(N(CCCN3CCOCC3)C(=O)c3cccs3)n2)cc1 [N-(4-(4-carbamoylphenyl)thiazol-2-yl)-N-(3-morpholinopropyl)thiophene-2-carboxamide]
18,AKT1,Cc1cc(-c2csc(N(CCCN3CCOCC3)C(=O)c3cccs3)n2)ccc1Cl [N-(4-(4-chloro-3-methylphenyl)thiazol-2-yl)-N-(3-morpholinopropyl)thiophene-2-carboxamide]
19,AKT1,O=C(c1cccs1)N(CCCN1CCOCC1)c1nc(-c2ccc(Cl)c([N+](=O)[O-])c2)cs1 [N-(4-(4-chloro-3-nitrophenyl)thiazol-2-yl)-N-(3-morpholinopropyl)thiophene-2-carboxamide]
20,AKT1,O=C(c1cccs1)N(CCCN1CCOCC1)c1nc(-c2ccc(Cl)cc2)cs1 [N-(4-(4-chlorophenyl)thiazol-2-yl)-N-(3-morpholinopropyl)thiophene-2-carboxamide]
